In patent US6796312B2, “Process and apparatus for the removal of toxic components of tobacco smoke and the standardization of the health hazards related to those components” (priority 2001, dated 2004):
Read-outs that look alike come from different tables or passages of the source.

Experiments:
[1] = test system: human oral fluid-cell harvests; assay: cells; type: cell-based
[2] = test system: peripheral inflammatory cells of oral fluid-cell harvests; type: cell-based, human
myeloperoxidase = biological target: T1, myeloperoxidase (Homo sapiens, UniProt P05164); assay: NADH2-NDGA-myeloperoxidase spectrophotometric assay of sputum / oral fluid-cell harvest supernatant extracts; type: biochemical; settings: for IC50: read-out: concentration that produces fifty (50) percent inhibition of myeloperoxidase
T1 construct: Homogenates were centrifuged at 1,300×g for ten (10) minutes and the supernatant extracts were kept during the course of analysis; from tissue; host or cells: human sputum / oral fluid-cell harvest (neutrophil-rich) homogenate supernatants
T1 sequence (P05164 49-745): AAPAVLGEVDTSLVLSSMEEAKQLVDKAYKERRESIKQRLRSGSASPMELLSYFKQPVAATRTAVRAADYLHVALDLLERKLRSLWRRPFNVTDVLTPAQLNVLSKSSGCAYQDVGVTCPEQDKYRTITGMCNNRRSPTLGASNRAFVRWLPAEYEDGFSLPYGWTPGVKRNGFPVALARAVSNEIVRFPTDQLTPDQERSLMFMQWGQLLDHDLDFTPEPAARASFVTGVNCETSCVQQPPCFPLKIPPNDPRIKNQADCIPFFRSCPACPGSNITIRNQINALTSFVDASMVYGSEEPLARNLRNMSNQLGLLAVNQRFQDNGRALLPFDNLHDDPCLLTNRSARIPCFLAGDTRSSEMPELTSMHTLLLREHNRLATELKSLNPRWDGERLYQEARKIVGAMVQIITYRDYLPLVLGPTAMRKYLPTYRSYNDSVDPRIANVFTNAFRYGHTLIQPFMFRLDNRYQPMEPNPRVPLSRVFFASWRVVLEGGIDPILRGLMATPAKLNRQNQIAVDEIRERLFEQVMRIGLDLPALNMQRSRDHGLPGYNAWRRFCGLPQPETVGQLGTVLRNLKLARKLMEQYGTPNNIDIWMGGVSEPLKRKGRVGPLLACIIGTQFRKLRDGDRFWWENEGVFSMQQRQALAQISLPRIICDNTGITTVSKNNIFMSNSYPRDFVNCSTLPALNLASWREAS
Protocol: Aliquots of fresh human oral fluid-cell harvests as exemplified above or fresh human sputum collected by the donors over a twenty-four (24) hour period were disrupted employing either Ten Broeck glass homogenizers or the Virtis homogenizer. Homogenates were centrifuged at 1,300×g for ten (10) minutes and the supernatant extracts were kept during the course of analysis at zero degrees centigrade (0° C.). Other reactants were incubated at thirty-five degrees centigrade (35° C.). Reduced nicotinamide-adenine dinucleotide oxidase and norhydroguaiaretic acid-myeloperoxidase activities were followed at 340 mμ or (nm) employing the Beckman Model DU Spectrophotometer temperature regulated at thirty-five degrees centigrade (35° C.). All specific reactions were run as duplicate assays.
Although this oxidation was very small under the conditions of experiment, an interaction correction factor was determined and applied to all reduced nicotinamide-adenine dinucleotide-nordihydroguaiaretic acid-mycloperoxidase assay reactions.
The velocity constants for the myeloperoxidase reactions behaved and were computed in accord with zero order reaction kinetics. […] In most instances, the activities followed first order reaction kinetics for a short interval and then ceased abruptly. The latter may be due to the presence or accumulation of variable concentrations of an unidentified inhibitor or inhibitors in the supernatants. Since in all cases the oxidase activities were very slow relative to the myeloperoxidase activities, the difference in optical density over the course of the reactions (up to ten (10) minutes) for the oxidase system were computed in the same manner as the data for the rapid myeloperoxidase system. Thus, all velocity constants were expressed in μ Moles of reduced nicotinamide-adenine dinucleotide oxidized per minute per ml. of oral fluid-cell harvest or sputum. The small oxidase activities were applied as a correction factor in the computation of all myeloperoxidase velocity constants.
The pH optimum of the myeloperoxidase system was determined. When fresh nordihydroguaiaretic acid solutions were prepared and interaction rates with reduced nicotinamide-adenine dinucleotide were subtracted as controls from oral lavage and sputum supernatant myeloperoxidase activities, the net velocity constants were zero (0). On the other hand, five (5) hour old nordihydroguaiaretic acid solutions yielded optimal activities at approximately pH 7.4. Subsequent experiments uniformly were carried out at pH 7.0 using five (5) hour old solutions to minimize the rates of the auto oxidation of nordihydroguaiaretic acid and oxidation of reduced nicotinamide-adenine dinucleotide by nordihydroguaiaretic acid when employing alkaline pH's.

[3] = test system: polymorphonuclear neutrophils; settings: cited from earlier work
[4] = test system: granular masses and polymorphonuclear neutrophils; settings: cited from earlier work
[5] = test system: myeloperoxidase (verdoperoxidase); settings: cited from earlier work
[6] = Homo sapiens, read-out: inhibition of aerobic (d) glucose dependent metabolism
[7] = Homo sapiens, read-out: inhibition of anaerobic glucolysis
[8] = with added 0.024 Molar hydrogen peroxide
[9] = Homo sapiens, read-out: inhibition of aerobic endogenous metabolism
[10] = Homo sapiens, read-out: inhibition of anaerobic glucose metabolism

CC=O [Acetaldehyde, acetaldehyde]
inhibition at 100 µM [1, 6]: 25%
inhibition at 1000 µM [1, 6]: 60%
inhibition at 100 µM [1, 7]: 10%
inhibition at 1000 µM [1, 7]: 30%

[O]N=O [Nitrogen dioxide, nitrogen dioxide]
inhibition of aerobic metabolism [1]: variable and, at times, doubtful inhibitions
peripheral inflammatory cell function [2]: enhanced peripheral inflammatory cell function

nitric oxide [Nitrogen oxide]
influence on metabolism [1]: did not influence
influence on cell function [2]: did not influence

NO [Hydroxylamine, hydroxylamine]
IC50 (myeloperoxidase; supernatant extracts): 0.33 mM
inhibition of hydrogen peroxide-dependent nitro-blue tetrazolium reducing enzyme activity [3, 8]: inhibited markedly
inhibition of endogenous reactions in polymorphonuclear neutrophils and granular masses [4]: not inhibited
inhibition of myeloperoxidase activity ([5]; Agner 1941, 1958): inhibited

[F-].[Na+] [Sodium Flouride, sodium fluoride]
IC50 (myeloperoxidase): 63 mM
inhibition of myeloperoxidase activity [5]: inhibited

C=CC=O [Acrolein, acrolein]
inhibition at 1 µM [1, 6]: 49%
inhibition at 2.5 µM [1, 6]: 81%
inhibition at 1 µM [1, 9]: 48%
inhibition at 2.5 µM [1, 9]: 66%
inhibition at 10 µM [1, 10]: 18%
inhibition at 25 µM [1, 10]: 43%
peripheral inflammatory cell function [2]: impaired to virtual total loss of function

O=C(O)CI [iodoacetate]
inhibition of exogenous hydrogen peroxide-dependent reaction in polymorphonuclear neutrophils [3]: inhibited completely
inhibition of endogenous reactions in granular masses and polymorphonuclear neutrophils [4]: inhibited completely

OO [Hydrogen peroxide, hydrogen peroxide]
inhibition of hydrogen peroxide-dependent nitro-blue tetrazolium reducing enzyme activity ([3]; 0.15 Molar hydrogen peroxide): totally
inhibition of endogenous nitro-blue tetrazolium reducing enzyme activity in granular masses ([4]; 0.15 Molar hydrogen peroxide): 100%

[Cu+2] [cupric ion]
inhibition of exogenous hydrogen peroxide-dependent reaction in polymorphonuclear neutrophils ([3]; low concentrations): inhibited completely
inhibition of endogenous reactions in granular masses and polymorphonuclear neutrophils ([4]; low concentrations): inhibited completely

B1: crystalline catalase (protein, UniProt P00432 2-527, looked up)
Catalase: ADNRDPASDQMKHWKEQRAAQKPDVLTTGGGNPVGDKLNSLTVGPRGPLLVQDVVFTDEMAHFDRERIPERVVHAKGAGAFGYFEVTHDITRYSKAKVFEHIGKRTPIAVRFSTVAGESGSADTVRDPRGFAVKFYTEDGNWDLVGNNTPIFFIRDALLFPSFIHSQKRNPQTHLKDPDMVWDFWSLRPESLHQVSFLFSDRGIPDGHRHMNGYGSHTFKLVNANGEAVYCKFHYKTDQGIKNLSVEDAARLAHEDPDYGLRDLFNAIATGNYPSWTLYIQVMTFSEAEIFPFNPFDLTKVWPHGDYPLIPVGKLVLNRNPVNYFAEVEQLAFDPSNMPPGIEPSPDKMLQGRLFAYPDTHRHRLGPNYLQIPVNCPYRARVANYQRDGPMCMMDNQGGAPNYYPNSFSAPEHQPSALEHRTHFSGDVQRFNSANDDNVTQVRTFYLKVLNEEQRKRLCENIAGHLKDAQLFIQKKAVKNFSDVHPEYGSRIQALLDKYNEEKPKNAVHTYVQHGSHLSAREKANL
inhibition of myeloperoxidase activity (myeloperoxidase; 14 units of crystalline catalase added): ~50%
inhibition of myeloperoxidase activity (myeloperoxidase; 41 units of crystalline catalase added): ~90%
inhibition of hydrogen peroxide-dependent nitro-blue tetrazolium reducing enzyme activity [3, 8]: inhibited markedly
inhibition of endogenous reactions in polymorphonuclear neutrophils and granular masses [4]: not inhibited
